Laboratory results taken from patent US20160039879A1, “NOVEL CYCLOSPORIN DERIVATIVES AND USES THEREOF” (S&T Global Inc., priority 2013, published 2016).
Where two headings read alike, the source gives them in different places. Starred links: 1 amine or outer side, 2 acyl side, 3 side chain; linkers in the order of their positions; H or OH if unused. Non-standard residues stand in square brackets, D forms with d. Residues, ends and D or L forms follow the SMILES beside them. ξ: configuration not given here. X12 = COc1ccc(COC(C)(C)C[C@@H](C(=O)[*:2])N(C)[*:1])cc1; X8 = CN([C@@H](CC(C)(C)OCc1ccccc1)C(=O)[*:2])[*:1]; MeBmt = C/C=C/C[C@@H](C)[C@@H](O)[C@H](NC)C(=O)O; X3 = CN([C@H](SCCCN1CCOCC1)C(=O)[*:2])[*:1]; X1 = CCN(CC)CCCS[C@H](C(=O)[*:2])N(C)[*:1]; X7 = CCN(CC)CCS[C@@H](C(=O)[*:2])N(C)[*:1]; X13 = CCOCOC(C)(C)CC(C(=O)[*:2])N(C)[*:1]; X2 = CCN(CC)CCS[C@H](C(=O)[*:2])N(C)[*:1]; X4 = CC=CCC(C)C(O)C(C(=O)[*:2])N(C)[*:1]; X9 = CN(C(SCCCN1CCOCC1)C(=O)[*:2])[*:1]; NMeIle(3ξ) = CCC(C)[C@H](NC)C(=O)O; NMeL = CN[CH](CC(C)C)C(=O)O; NMeV = CN[CH](C(=O)O)C(C)C; Abu = CC[CH](N)C(=O)O

System: HCV replicon in cell line ET (luc-ubi-neo/ET), Huh7 human hepatoma cell line
Test: HCV subgenomic replicon assay (luciferase end point)
Format: cell-based
Conditions: read-out: Antiviral activity EC50
[1] = Hepatitis C virus, Huh-7, Table 15, HCV replicon
[2] = Hepatitis C virus, Huh-7, Table 13, HCV replicon
[3] = Hepatitis C virus, Huh-7, Table 11, HCV replicon

Work on C/C=C/C[C@@H](C)[C@@H](O)[C@H]1C(=O)N[C@@H](CC)C(=O)N(C)[C@H](CSCCCCC(CO)CO)C(=O)N(C)[C@@H](CC(C)(C)O)C(=O)N[C@@H](C(C)C)C(=O)N(C)[C@@H](CC(C)C)C(=O)N[C@@H](C)C(=O)N[C@H](C)C(=O)N(C)[C@@H](CC(C)C)C(=O)N(C)[C@@H](CC(C)C)C(=O)N(C)[C@@H](C(C)C)C(=O)N1C yielded an EC50 [1] of 70 nM.

With C/C=C/C[C@@H](C)[C@@H](O)[C@H]1C(=O)N[C@@H](CC)C(=O)N(C)[C@H](CSCC[C@H](CO)CCC)C(=O)N(C)[C@@H](CC(C)(C)O)C(=O)N[C@@H](C(C)C)C(=O)N(C)[C@@H](CC(C)C)C(=O)N[C@@H](C)C(=O)N[C@H](C)C(=O)N(C)[C@@H](CC(C)C)C(=O)N(C)[C@@H](CC(C)C)C(=O)N(C)[C@@H](C(C)C)C(=O)N1C the EC50 [1] was 70 nM.

In the case of C/C=C/C[C@@H](C)[C@@H](O)[C@H]1C(=O)N[C@@H](CC)C(=O)N(C)[C@H](CSCC[C@@H](CO)CCC)C(=O)N(C)[C@@H](CC(C)(C)O)C(=O)N[C@@H](C(C)C)C(=O)N(C)[C@@H](CC(C)C)C(=O)N[C@@H](C)C(=O)N[C@H](C)C(=O)N(C)[C@@H](CC(C)C)C(=O)N(C)[C@@H](CC(C)C)C(=O)N(C)[C@@H](C(C)C)C(=O)N1C, the EC50 [1] is reported as 70 nM.

With C/C=C/C[C@@H](C)[C@@H](O)[C@H]1C(=O)N[C@@H](CC)C(=O)N(C)[C@H](CSCCCCC(C)(C)O)C(=O)N(C)[C@@H](CC(C)(C)O)C(=O)N[C@@H](C(C)C)C(=O)N(C)[C@@H](CC(C)C)C(=O)N[C@@H](C)C(=O)N[C@H](C)C(=O)N(C)[C@@H](CC(C)C)C(=O)N(C)[C@@H](CC(C)C)C(=O)N(C)[C@@H](C(C)C)C(=O)N1C the EC50 [1] was 60 nM.

In the case of C/C=C/C[C@@H](C)[C@@H](O)[C@H]1C(=O)N[C@@H](CC)C(=O)N(C)[C@H](CSC/C(=C/CN(CC)CC)CCC)C(=O)N(C)[C@@H](CC(C)(C)O)C(=O)N[C@@H](C(C)C)C(=O)N(C)[C@@H](CC(C)C)C(=O)N[C@@H](C)C(=O)N[C@H](C)C(=O)N(C)[C@@H](CC(C)C)C(=O)N(C)[C@@H](CC(C)C)C(=O)N(C)[C@@H](C(C)C)C(=O)N1C, the EC50 [1] is reported as 60 nM.

C/C=C/C[C@@H](C)[C@@H](O)[C@H]1C(=O)N[C@@H](CC)C(=O)N(C)[C@H](SCCCN2CCOCC2)C(=O)N(C)[C@@H](CC(C)(C)OCc2ccc(OC)cc2)C(=O)N[C@@H](C(C)C)C(=O)N(C)[C@@H](CC(C)C)C(=O)N[C@@H](C)C(=O)N[C@H](C)C(=O)N(C)[C@@H](CC(C)C)C(=O)N(C)[C@@H](CC(C)C)C(=O)N(C)[C@@H](C(C)C)C(=O)N1C (cyclo(A[dA][NMeL][NMeL][NMeV][MeBmt][Abu][X3][X12]V[NMeL])) showed an EC50 (Table 11, HCV replicon) of 280 nM.

For CC=CCC(C)C(O)C1C(=O)NC(CC)C(=O)N(C)C(SCCCN2CCOCC2)C(=O)N(C)C(CC(C)(C)OCOCC)C(=O)NC(C(C)C)C(=O)N(C)C(CC(C)C)C(=O)NC(C)C(=O)NC(C)C(=O)N(C)C(CC(C)C)C(=O)N(C)C(CC(C)C)C(=O)N(C)C(C(C)C)C(=O)N1C (centres unmarked) (cyclo([X4][Abu][X9][X13]V[NMeL]AA[NMeL][NMeL][NMeV]); configuration not given here), the EC50 (Table 11, HCV replicon) was 160 nM.

Work on C/C=C/C[C@@H](C)[C@@H](O)[C@H]1C(=O)N[C@@H](CC)C(=O)N(C)[C@H](CSCCN(C)C)C(=O)N(C)[C@@H](CC(C)C)C(=O)N[C@@H](C(C)C)C(=O)N(C)[C@@H](CC(C)C)C(=O)N[C@@H](C)C(=O)N[C@H](C)C(=O)N(C)[C@@H](CC(C)C)C(=O)N(C)[C@@H](CC(C)C)C(=O)N(C)[C@@H](C(C)C)C(=O)N1C (single isomer, unassigned) [Example 6, isomer B] yielded an EC50 [2] of 170 nM.

With C/C=C/C[C@@H](C)[C@@H](O)[C@H]1C(=O)N[C@@H](CC)C(=O)N(C)[C@H](CSCCN(CC)CC)C(=O)N(C)[C@@H](CC(C)C)C(=O)N[C@@H](C(C)C)C(=O)N(C)[C@@H](CC(C)C)C(=O)N[C@@H](C)C(=O)N[C@H](C)C(=O)N(C)[C@@H](CC(C)C)C(=O)N(C)[C@@H](CC(C)C)C(=O)N(C)[C@@H](C(C)C)C(=O)N1C (single isomer, unassigned) [Example 7, isomer B] the EC50 [2] was 160 nM.

C/C=C/C[C@@H](C)[C@@H](O)[C@H]1C(=O)N[C@@H](CC)C(=O)N(C)[C@H](SCCN(CC)CC)C(=O)N(C)[C@@H](C(C)C)C(=O)N[C@@H](C(C)C)C(=O)N(C)[C@@H](CC(C)C)C(=O)N[C@@H](C)C(=O)N[C@H](C)C(=O)N(C)[C@@H](CC(C)C)C(=O)N(C)[C@@H](CC(C)C)C(=O)N(C)[C@@H](C(C)C)C(=O)N1C [(R)-2-(N,N-Diethylamino)ethylthio-Sar]-3-[N-MeVal]-4-cyclosporin] (cyclo(A[dA][NMeL][NMeL][NMeV][MeBmt][Abu][X2][NMeV]V[NMeL])) gave an EC50 (Table 10, HCV replicon) of 40 nM.

For C/C=C/C[C@@H](C)[C@@H](O)[C@H]1C(=O)N[C@@H](CC)C(=O)N(C)[C@@H](SCCN(CC)CC)C(=O)N(C)[C@@H](C(C)C)C(=O)N[C@@H](C(C)C)C(=O)N(C)[C@@H](CC(C)C)C(=O)N[C@@H](C)C(=O)N[C@H](C)C(=O)N(C)[C@@H](CC(C)C)C(=O)N(C)[C@@H](CC(C)C)C(=O)N(C)[C@@H](C(C)C)C(=O)N1C [(S)-2-(N,N-Diethylamino)ethylthio-Sar]-3-[N-MeVal]-4-cyclosporin] (cyclo(A[dA][NMeL][NMeL][NMeV][MeBmt][Abu][X7][NMeV]V[NMeL])), the EC50 (Table 10, HCV replicon) was 3660 nM.

CC=CCC(C)C(O)C1C(=O)NC(CC)C(=O)N(C)C(SCCN(CC(C)C)C(C)C)C(=O)N(C)C(CC(C)C)C(=O)NC(C(C)C)C(=O)N(C)C(CC(C)C)C(=O)NC(C)C(=O)NC(C)C(=O)N(C)C(CC(C)C)C(=O)N(C)C(CC(C)C)C(=O)N(C)C(C(C)C)C(=O)N1C [(S)-2-(N-iso-Butyl-N-iso-propylamino)ethylthio-Sar]-3-cyclosporin] was tested, and the EC50 (Table 10, HCV replicon) was 4650 nM.

Compound C/C=C/C[C@@H](C)[C@@H](O)[C@H]1C(=O)N[C@@H](CC)C(=O)N(C)[C@H](SCCN(CC)CC)C(=O)N(C)[C@@H](C(C)CC)C(=O)N[C@@H](C(C)C)C(=O)N(C)[C@@H](CC(C)C)C(=O)N[C@@H](C)C(=O)N[C@H](C)C(=O)N(C)[C@@H](CC(C)C)C(=O)N(C)[C@@H](CC(C)C)C(=O)N(C)[C@@H](C(C)C)C(=O)N1C (stereo partly drawn) [[(R)-2-(N,N-Diethylamino)ethylthio-Sar]-3-[NMeIle]-4-cyclosporin] (cyclo(A[dA][NMeL][NMeL][NMeV][MeBmt][Abu][X2][NMeIle(3ξ)]V[NMeL])) has an EC50 (Hepatitis C virus, Huh-7, Table 10, HCV replicon) of 40 nM.

Work on C/C=C/C[C@@H](C)[C@@H](O)[C@H]1C(=O)N[C@@H](CC)C(=O)N(C)[C@H](SCCCN(CC)CC)C(=O)N(C)[C@@H](CC(C)(C)O)C(=O)N[C@@H](C(C)C)C(=O)N(C)[C@@H](CC(C)C)C(=O)N[C@@H](C)C(=O)N[C@H](C)C(=O)N(C)[C@@H](CC(C)C)C(=O)N(C)[C@@H](CC(C)C)C(=O)N(C)[C@@H](C(C)C)C(=O)N1C [[(R)-3-(N,N Diethylamino)propylthio-Sar]-3-[(γ-hydroxy)-NMeLeu]-4-cyclosporin] yielded an EC50 [3] of 70 nM.

In the case of C/C=C/C[C@@H](C)[C@@H](O)[C@H]1C(=O)N[C@@H](CC)C(=O)N(C)[C@H](SCCCN(CC)CC)C(=O)N(C)[C@@H](C(C)C)C(=O)N[C@@H](C(C)C)C(=O)N(C)[C@@H](CC(C)C)C(=O)N[C@@H](C)C(=O)N[C@H](C)C(=O)N(C)[C@@H](CC(C)C)C(=O)N(C)[C@@H](CC(C)C)C(=O)N(C)[C@@H](C(C)C)C(=O)N1C [[(R)-3-(N,N-Diethylamino)propylthio-Sar]-3-[N-MeVal]-4-cyclosporin] (cyclo(A[dA][NMeL][NMeL][NMeV][MeBmt][Abu][X1][NMeV]V[NMeL])), the EC50 [2] is reported as 70 nM.

C/C=C/C[C@@H](C)[C@@H](O)[C@H]1C(=O)N[C@@H](CC)C(=O)N(C)[C@H](SCCCN(CC)CC)C(=O)N(C)[C@@H](C(C)CC)C(=O)N[C@@H](C(C)C)C(=O)N(C)[C@@H](CC(C)C)C(=O)N[C@@H](C)C(=O)N[C@H](C)C(=O)N(C)[C@@H](CC(C)C)C(=O)N(C)[C@@H](CC(C)C)C(=O)N(C)[C@@H](C(C)C)C(=O)N1C (stereo partly drawn) [[(R)-3-(N,N-Diethylamino)propylthio-Sar]-3-[NMeIle]-4-cyclosporin] (cyclo(A[dA][NMeL][NMeL][NMeV][MeBmt][Abu][X1][NMeIle(3ξ)]V[NMeL])) gave an EC50 [2] of 80 nM.

C/C=C/C[C@@H](C)[C@@H](O)[C@H]1C(=O)N[C@@H](CC)C(=O)N(C)[C@H](SCCCN2CCOCC2)C(=O)N(C)[C@@H](CC(C)(C)O)C(=O)N[C@@H](C(C)C)C(=O)N(C)[C@@H](CC(C)C)C(=O)N[C@@H](C)C(=O)N[C@H](C)C(=O)N(C)[C@@H](CC(C)C)C(=O)N(C)[C@@H](CC(C)C)C(=O)N(C)[C@@H](C(C)C)C(=O)N1C [[(R)-3-(N-Morpholino)propylthio-Sar]-3-[(γ-hydroxy)-NMeLeu]-4-cyclosporin] gave an EC50 [3] of 50 nM.

C/C=C/C[C@@H](C)[C@@H](O)[C@H]1C(=O)N[C@@H](CC)C(=O)N(C)[C@H](SCCCN2CCOCC2)C(=O)N(C)[C@@H](CC(C)(C)OC)C(=O)N[C@@H](C(C)C)C(=O)N(C)[C@@H](CC(C)C)C(=O)N[C@@H](C)C(=O)N[C@H](C)C(=O)N(C)[C@@H](CC(C)C)C(=O)N(C)[C@@H](CC(C)C)C(=O)N(C)[C@@H](C(C)C)C(=O)N1C [[(R)-3-(N-Morpholino)propylthio-Sar]-3-[(γ-methoxy)-NMeLeu]-4-cyclosporin] showed an EC50 [3] of 60 nM.

For C/C=C/C[C@@H](C)[C@@H](O)[C@H]1C(=O)N[C@@H](CC)C(=O)N(C)[C@H](SCCCN2CCOCC2)C(=O)N(C)[C@@H](CC(C)(C)OCc2ccccc2)C(=O)N[C@@H](C(C)C)C(=O)N(C)[C@@H](CC(C)C)C(=O)N[C@@H](C)C(=O)N[C@H](C)C(=O)N(C)[C@@H](CC(C)C)C(=O)N(C)[C@@H](CC(C)C)C(=O)N(C)[C@@H](C(C)C)C(=O)N1C [[(R)-(3-(N-Morpholino)propylthio-Sar]-3-[(γ-benzyloxy)-N-MeLeu]-4-cyclosporin] (cyclo(A[dA][NMeL][NMeL][NMeV][MeBmt][Abu][X3][X8]V[NMeL])), the EC50 (Table 11, HCV replicon) was 280 nM.

“(R)-2-(N-iso-Butyl-N-iso-propylamino)ethylthio-Sar]-3-cyclosporin” showed an EC50 (Table 10, HCV replicon) of 480 nM.
